Assay results: patent publication US20240247080A1, “GLP1/GIP/NPY2 RECEPTOR TRIPLE AGONISTS” (Boehringer Ingelheim International GmbH, priority 2022, published 2024)
Read-outs that look alike come from different tables or passages of the source. Starred links: 1 amine or outer side, 2 acyl side, 3 side chain; linkers in the order of their positions; H or OH if unused. Positions of bridges follow the written chain, without caps; N, C: chain ends. Non-standard residues stand in square brackets, D forms with d. Groups on a side chain read outwards from the residue. Chains are numbered I, II in the order given. No end group written: not given here. *: point of attachment. C20 diacid = O=C(O)CCCCCCCCCCCCCCCCCCC(=O)*; C18 diacid = O=C(O)CCCCCCCCCCCCCCCCC(=O)*; γGlu = O=C(O)[C@H](CCC(=O)[*:2])N[*:1]; εLys = N[C@@H](CCCCN[*:1])C(=O)[*:2]; AEEA = NCCOCCOCC(=O)O; Aib = CC(C)(N)C(=O)O

Legend:
Format in all cases: cell-based
Conditions in all cases: CreLuc reporter gene assay
hGLP1R = target: T1, hGLP1R (Homo sapiens, UniProt P43220); experiment: hGLP1R CreLuc reporter gene assay in 0.5% and 100% plasma
T1 construct: expressed in transfected cells; host or cells: HEK-293 cells carrying a CRE-luciferase reporter gene
Outline: (§1)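 Agonist EC50s came from 8-concentration curves over four decades, fitted by non-linear variable-slope regression of CRE-driven luciferase luminescence. Cells were exposed 4 h at 37 °C, in buffer with 0.5% human plasma or in 100% plasma; GIPR was expressed in CHO cells, GLP-1R and NPY2R in HEK cells.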

hGIPR = target: T2, hGIPR (Homo sapiens, UniProt P48546); experiment: hGIPR CreLuc reporter gene assay in 0.5% and 100% plasma
T2 construct: expressed in transfected cells; host or cells: CHO cells carrying a CRE-luciferase reporter gene
T2 sequence (P48546 22-466): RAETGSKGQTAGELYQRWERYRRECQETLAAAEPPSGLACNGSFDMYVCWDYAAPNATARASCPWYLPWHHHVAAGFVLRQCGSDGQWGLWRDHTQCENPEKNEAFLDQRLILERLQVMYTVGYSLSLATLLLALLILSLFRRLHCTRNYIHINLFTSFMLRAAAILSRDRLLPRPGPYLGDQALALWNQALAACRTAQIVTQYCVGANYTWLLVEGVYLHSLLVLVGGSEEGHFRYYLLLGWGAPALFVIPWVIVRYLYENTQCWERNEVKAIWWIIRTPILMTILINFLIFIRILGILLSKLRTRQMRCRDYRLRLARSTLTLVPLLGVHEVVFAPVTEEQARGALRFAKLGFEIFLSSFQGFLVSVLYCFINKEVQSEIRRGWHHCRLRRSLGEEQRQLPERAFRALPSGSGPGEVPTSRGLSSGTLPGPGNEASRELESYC
Outline: as §1

hNPY2R = target: T3, hNPY2R (Homo sapiens, UniProt P49146); experiment: hNPY2R CreLuc reporter gene assay in 0.5% and 100% plasma
T3 construct: expressed in transfected cells; host or cells: HEK-293 cells carrying a CRE-luciferase reporter gene
T3 sequence (P49146 1-381): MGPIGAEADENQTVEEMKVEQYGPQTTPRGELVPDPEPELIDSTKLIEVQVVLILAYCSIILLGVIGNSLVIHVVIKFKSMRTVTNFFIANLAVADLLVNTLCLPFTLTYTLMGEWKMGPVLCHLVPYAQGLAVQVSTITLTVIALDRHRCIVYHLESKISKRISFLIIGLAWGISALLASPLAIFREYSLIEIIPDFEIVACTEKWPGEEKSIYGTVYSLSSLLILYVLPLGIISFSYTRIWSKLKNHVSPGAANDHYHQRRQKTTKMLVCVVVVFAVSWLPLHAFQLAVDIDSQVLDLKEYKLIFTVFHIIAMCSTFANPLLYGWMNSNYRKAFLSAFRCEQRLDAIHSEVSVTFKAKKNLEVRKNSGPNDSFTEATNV
Outline: as §1

[1] = 0.5% human plasma, read-out: hGLP1R 0.5% hP
[2] = 0.5% human plasma, read-out: hGIPR 0.5% hP
[3] = 100% human plasma, read-out: hGIPR 100% hP
[4] = 0.5% human plasma, read-out: hNPY2R 0.5% hP
[5] = 100% human plasma, read-out: hNPY2R 100% hP
[6] = 100% human plasma, read-out: hGLP1R 100% hP

T1 sequence (P43220 24-463): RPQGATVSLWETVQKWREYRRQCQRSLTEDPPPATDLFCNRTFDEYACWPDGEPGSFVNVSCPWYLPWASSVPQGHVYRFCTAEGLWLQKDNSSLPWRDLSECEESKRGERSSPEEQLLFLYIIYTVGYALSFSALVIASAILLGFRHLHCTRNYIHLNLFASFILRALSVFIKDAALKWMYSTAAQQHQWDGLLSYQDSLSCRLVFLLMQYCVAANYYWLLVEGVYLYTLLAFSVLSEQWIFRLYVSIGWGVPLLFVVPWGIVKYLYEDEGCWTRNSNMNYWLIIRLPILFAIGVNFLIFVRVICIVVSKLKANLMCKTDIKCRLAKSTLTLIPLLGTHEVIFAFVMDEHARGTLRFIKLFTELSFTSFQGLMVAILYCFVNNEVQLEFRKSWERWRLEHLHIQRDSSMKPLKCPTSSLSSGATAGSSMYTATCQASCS

Row | Substance | EC50 (hGLP1R; [1]) | EC50 (hGIPR; [2]) | EC50 (hGIPR; [3]) | EC50 (hNPY2R; [4]) | EC50 (hNPY2R; [5]) | EC50 (hGLP1R; [6])
1 | H-Y[Aib]EGTFTSDYSI[Aib]LEKQAQ[Aib]EFVQWLIK([εLys-γGlu-γGlu-γGlu-γGlu-γGlu-C18 diacid])GGPSEGASLRHYYNWLTRQRY-NH2 [Compound 154, Y-Aib-E-G-T-F-T-S-D-Y-S-I-Aib-L-E-K-Q-A-Q-Aib-E-F-V-Q-W-L-I-K(1,3)-GGPSEGASLRHYYNWLTRQRY-NH2.C18DA-gGlu-gGlu-gGlu-gGlu-gGlu-eLys(1,2)] | 0.26 nM | 0.4 nM | 1.07 nM | 10.7 nM | – | –
2 | H-Y[Aib]EGTFTSDYSI[Aib]LEKQAQ[Aib]EFVQWLIK([εLys-γGlu-γGlu-γGlu-γGlu-γGlu-γGlu-C18 diacid])GGPSEGASLRHYYNWLTRQRY-NH2 [Compound 153, Y-Aib-E-G-T-F-T-S-D-Y-S-I-Aib-L-E-K-Q-A-Q-Aib-E-F-V-Q-W-L-I-K(1,3)-GGPSEGASLRHYYNWLTRQRY-NH2.C18DA-gGlu-gGlu-gGlu-gGlu-gGlu-gGlu-eLys(1,2)] | 0.25 nM | 0.22 nM | 1.21 nM | 18.9 nM | 58.5 nM | –
3 | H-Y[Aib]EGTFTSDYSI[Aib]LEKQAQ[Aib]EFVQWLIK([εLys-γGlu-γGlu-γGlu-γGlu-γGlu-γGlu-γGlu-C20 diacid])GGPSSGASLRHYYNWLTRQRY-NH2 [Compound 43, Y-Aib-E-G-T-F-T-S-D-Y-S-I-Aib-L-E-K-Q-A-Q-Aib-E-F-V-Q-W-L-I-K(1,3)-GGPSSGASLRHYYNWLTRQRY-NH2.C20DA-gGlu-gGlu-gGlu-gGlu-gGlu-gGlu-gGlu-eLys(1,2)] | 0.41 nM | 0.64 nM | 1.97 nM | 13.1 nM | 21.1 nM | –
4 | H-Y[Aib]EGTFTSDYSI[Aib]LELQAQ[Aib]AFVEWLIK([εLys-γGlu-γGlu-γGlu-γGlu-γGlu-γGlu-C20 diacid])GGPSSGASLRHYYNWLTRQRY-NH2 [Compound 209, Y-Aib-E-G-T-F-T-S-D-Y-S-I-Aib-L-E-L-Q-A-Q-Aib-A-F-V-E-W-L-I-K(1,3)-GGPSSGASLRHYYNWLTRQRY-NH2.C20DA-gGlu-gGlu-gGlu-gGlu-gGlu-gGlu-eLys(1,2)] | 0.48 nM | 0.81 nM | – | 35.2 nM | – | 16.7 nM
5 | H-Y[Aib]EGTFTSDYSI[Aib]LESQAQ[Aib]AFVEWLIK([εLys-γGlu-γGlu-γGlu-γGlu-γGlu-γGlu-C20 diacid])GGPSSGASLRHYYNWLTRQRY-NH2 [Compound 121, Y-Aib-E-G-T-F-T-S-D-Y-S-I-Aib-L-E-S-Q-A-Q-Aib-A-F-V-E-W-L-I-K(1,3)-GGPSSGASLRHYYNWLTRQRY-NH2.C20DA-gGlu-gGlu-gGlu-gGlu-gGlu-gGlu-eLys(1,2)] | 0.18 nM | 0.65 nM | – | 23.8 nM | – | –
6 | I: H-Y[Aib]EGTFTSDYSI[Aib]LEKQAQ[Aib]AFVQWLIKGGPEEGASLRHYYNWLTRQRY-NH2 / II: {C18 diacid}-EEEEE[εLys] (amide I:28-II:C) [Compound 155, Y-Aib-E-G-T-F-T-S-D-Y-S-I-Aib-L-E-K-Q-A-Q-Aib-A-F-V-Q-W-L-I-K(1,3)-GGPEEGASLRHYYNWLTRQRY-NH2.C18DA-E-E-E-E-E-eLys(1,2)] | 0.15 nM | 0.14 nM | 1.43 nM | 17 nM | – | 7.18 nM
7 | Y[Aib]EGTFTSDYSI[Aib]LEKQAE[Aib]AFVEWLIK([AEEA-AEEA-γGlu-γGlu-γGlu-γGlu-C18 diacid])GGPSSGASLRHYYNWLTRQRY-NH2 [Compound 150, Y-Aib-E-G-T-F-T-S-D-Y-S-I-Aib-L-E-K-Q-A-E-Aib-A-F-V-E-W-L-I-K(1,3)-GGPSSGASLRHYYNWLTRQRY-NH2.C18DA-gGlu-glu-Glu-Glu-OEG-OEG(1,2)] | 0.31 nM | 0.27 nM | – | 16.7 nM | – | –
8 | Y[Aib]EGTFTSDYSI[Aib]LEKQAQ[Aib]AFVEWLIK([εLys-γGlu-γGlu-γGlu-γGlu-γGlu-C20 diacid])GGPESPASLRHYYNWLTRQRY-NH2 [Compound 70, Y-Aib-E-G-T-F-T-S-D-Y-S-I-Aib-L-E-K-Q-A-Q-Aib-A-F-V-E-W-L-I-K(1,3)-GGPESPASLRHYYNWLTRQRY-NH2.C20DA-gGlu-gGlu-gGlu-gGlu-gGlu-eLys(1,2)] | 0.3 nM | 0.28 nM | 2.62 nM | 16.2 nM | – | –

Now those with a lower EC50 (hGLP1R; [1]), led by results:

Row | EC50 (hGLP1R; [1]) | EC50 (hGIPR; [2]) | EC50 (hGIPR; [3]) | EC50 (hNPY2R; [4]) | EC50 (hNPY2R; [5]) | EC50 (hGLP1R; [6]) | Substance
9 | 0.14 nM | 0.33 nM | 1.97 nM | 10.7 nM | – | 6.74 nM | I: Y[Aib]EGTFTSDYSI[Aib]LEKQAQ[Aib]AFVQWLIKGGPSEGASLRHYYNWLTRQRY-NH2 / II: {C20 diacid}-EEEEE[εLys] (amide I:28-II:C) [Compound 240, Y-Aib-E-G-T-F-T-S-D-Y-S-I-Aib-L-E-K-Q-A-Q-Aib-A-F-V-Q-W-L-I-K(1,3)-GGPSEGASLRHYYNWLTRQRY-NH2.C20DA-E-E-E-E-E-eLys(1,2)]
10 | 0.14 nM | 0.3 nM | 0.98 nM | 10.9 nM | – | – | Y[Aib]EGTFTSDYSI[Aib]LEKQAQ[Aib]AFVEWLIK([εLys-γGlu-γGlu-γGlu-γGlu-γGlu-C18 diacid])GGPSEGASLRHYYNWLTRQRY-NH2 [Compound 295, Y-Aib-E-G-T-F-T-S-D-Y-S-I-Aib-L-E-K-Q-A-Q-Aib-A-F-V-E-W-L-I-K(1,3)-GGPSEGASLRHYYNWLTRQRY-NH2.C18DA-gGlu-gGlu-glu-gGlu-gGlu-eLys(1,2)]
11 | 0.11 nM | 0.35 nM | 2.94 nM | 18.2 nM | – | – | H-Y[Aib]EGTFTSDYSI[Aib]LERQAQ[Aib]AFVEWLIK([εLys-γGlu-γGlu-γGlu-γGlu-γGlu-γGlu-C20 diacid])GGPSSGASLRHYYNWLTRQRY-NH2 [Compound 131, Y-Aib-E-G-T-F-T-S-D-Y-S-I-Aib-L-E-R-Q-A-Q-Aib-A-F-V-E-W-L-I-K(1,3)-GGPSSGASLRHYYNWLTRQRY-NH2.C20DA-gGlu-gGlu-gGlu-gGlu-gGlu-gGlu-eLys(1,2)]
12 | 0.11 nM | 0.28 nM | 1.82 nM | 16.7 nM | – | 3.95 nM | I: H-Y[Aib]EGTFTSDYSI[Aib]LEKQAQ[Aib]AFVQWLIKGGPSEGASLRHYYNWLTRQRY-NH2 / II: {C18 diacid}-EEEEEE (amide I:28-II:C) [Compound 264, Y-Aib-E-G-T-F-T-S-D-Y-S-I-Aib-L-E-K-Q-A-Q-Aib-A-F-V-Q-W-L-I-K(1,3)-GGPSEGASLRHYYNWLTRQRY-NH2.C18DA-E-E-E-E-E-E(1,2)]
13 | 0.11 nM | 0.34 nM | 1.44 nM | 10.7 nM | 39.2 nM | – | Y[Aib]EGTFTSDYSI[Aib]LEKQAQ[Aib]AFVEWLIK([AEEA-AEEA-γGlu-γGlu-γGlu-γGlu-γGlu-C20 diacid])GGPSSPASLRHYYNWLTRQRY-NH2 [Compound 120, Y-Aib-E-G-T-F-T-S-D-Y-S-I-Aib-L-E-K-Q-A-Q-Aib-A-F-V-E-W-L-I-K(1,3)-GGPSSPASLRHYYNWLTRQRY-NH2.C20DA-gGlu-gGlu-gGlu-gGlu-gGlu-OEG-OEG(1,2)]
14 | 0.08 nM | 0.13 nM | 0.89 nM | 15.2 nM | – | – | I: H-Y[Aib]EGTFTSDYSI[Aib]LEKQAQ[Aib]AFVQWLIKGGPESGASLRHYYNWLTRQRY-NH2 / II: {C18 diacid}-EEEEE[εLys] (amide I:28-II:C) [Compound 63, Y-Aib-E-G-T-F-T-S-D-Y-S-I-Aib-L-E-K-Q-A-Q-Aib-A-F-V-Q-W-L-I-K(1,3)-GGPESGASLRHYYNWLTRQRY-NH2.C18DA-E-E-E-E-E-eLys(1,2)]
15 | 0.08 nM | 0.4 nM | 0.71 nM | 11 nM | 31.6 nM | – | Y[Aib]EGTFTSDYSI[Aib]LEKQAQ[Aib]AFVEWLIK([AEEA-AEEA-γGlu-γGlu-γGlu-C18 diacid])GGPSEGASLRHYYNWLTRQRY-NH2 [Compound 299, Y-Aib-E-G-T-F-T-S-D-Y-S-I-Aib-L-E-K-Q-A-Q-Aib-A-F-V-E-W-L-I-K(1,3)-GGPSEGASLRHYYNWLTRQRY-NH2.C18DA-gGlu-gGlu-gGlu-OEG-OEG(1,2)]
